Measurements reported in patent publication US6916812B2, “Alpha-aminoamide derivatives as melanocortin agonists” (Bristol-Myers Squibb Company, priority 2001, dated 2005).
Read-outs that look alike come from different tables or passages of the source.

Molecular target: T1, cloned human MC4R (Homo sapiens, UniProt P32245)
T1 construct: made in house; host or cells: Hi5 insect cells (baculovirus infection); membrane preparation
Assay: Membrane binding assay: competitive inhibition of [125I]NDP-α-MSH binding
Settings: for IC50: read-out: MC4R IC50; for inhibition at 10 µM: read-out: Displacement Rate (%) (at 10 μM)
Experimental: Hi5 cells are infected using the following protocol: Cells at a density of 1×10^6 cells/mL are spun down at 1000 rpm (Beckman GS-6KR centrifuge) for 10 minutes. Cells are resuspended in 10% of their original volume in a sterile 50 mL conical centrifuge tube wrapped with aluminum foil. Virus is added at a Multiplicity of Infection (MOI) of 3 and incubated for 1 hour at room temperature with gentle shaking. […] Cells are spun down in 50 mL conical centrifuge tubes at 1000 rpm for 10 minutes. Each of the resulting pellets are resuspended in 10 mL of cold (4° C.) membrane buffer (25 mM HEPES, pH 7.4, 140 mM NaCl, 1.2 mM MgCl2, 2.5 mM CaCl2, 10 μG/mL Aprotinin, 10 μG/mL Leupeptin) and Dounce homogenized using 10-12 strokes. […] The resulting pellet is resuspended in cold membrane buffer in a total of ¼ of the original volume by vortexing and aspiration using a syringe and 27 gauge needle. Protein content is determined (Bradford, Bio-Rad Protein Assay). Membranes are aliquoted in microcentrifuge tubes and quick frozen in liquid nitrogen. Store at −80° C. until use. The membrane binding buffer is composed of 25 mM HEPES, pH 7.4, 140 mM NaCl, 1.2 mM MgCl2, 2.5 mM CaCl2, 0.1% BSA. […] The mixture is filtered with Brandel Microplate 96 filter apparatus using 96-well GF/B filter presoaked in 1-% polyethyleneimine (Sigma). The filter is washed (4 times with a total of 1 mL per well) with cold wash buffer consisting of 20 mM HEPES, pH 7.4, 5 mM MgCl2. […] 100 μl of Wallac Optiphase Supermix scintillation fluid is added to each well. The top is sealed and the plates are shaken to insure that the filters are thoroughly soaked with fluid. […] Dose-response curves are fitted by […] analyses and IC50 values are calculated using ExcelFit.

[1] = at 10 μM, [125I]NDP-α-MSH displacement

T1 sequence (P32245 whole entry): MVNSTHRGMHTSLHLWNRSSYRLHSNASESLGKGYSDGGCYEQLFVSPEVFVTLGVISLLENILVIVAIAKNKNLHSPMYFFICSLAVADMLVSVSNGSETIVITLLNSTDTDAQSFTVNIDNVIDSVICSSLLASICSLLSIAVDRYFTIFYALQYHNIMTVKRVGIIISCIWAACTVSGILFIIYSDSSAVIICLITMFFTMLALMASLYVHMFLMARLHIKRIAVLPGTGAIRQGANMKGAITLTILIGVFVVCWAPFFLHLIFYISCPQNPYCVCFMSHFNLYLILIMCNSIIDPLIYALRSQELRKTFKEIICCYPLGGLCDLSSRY

SMILES	Displacement Rate (%) (at 10 μM) [1]	IC50	inhibition at 10 µM	inhibition at 10 µM [1]
N[C@@H](Cc1ccc(OCc2ccc(-c3ccccc3)cc2)cc1)C(=O)N1CCN(Cc2cccc(Cl)c2Cl)CC1 [Example 198]	+++ (+++ = 91-100)	< 1.5 µM	–	–
COc1ccc(CCCOc2ccc(C[C@H](N)C(=O)N3CCN(Cc4cccc(Cl)c4Cl)CC3)cc2)cc1 [Example 264]	++ (++ = 71-90)	1.5 to 3 µM	–	–
N[C@@H](Cc1ccc(OCc2ccccc2)cc1)C(=O)N1CCN(Cc2cccc(Cl)c2Cl)CC1 [Example 178]	+++ (+++ = 91-100)	< 1.5 µM	–	–
N[C@@H](Cc1ccc(OCc2cc(Cl)cc(Cl)c2)cc1)C(=O)N1CCN(Cc2cccc(Cl)c2Cl)CC1 [Example 189]	+++ (+++ = 91-100)	< 1.5 µM	–	–
CCCCc1ccc(COc2ccc(C[C@H](N)C(=O)N3CCN(Cc4cccc(Cl)c4Cl)CC3)cc2)cc1 [Example 184]	+++ (+++ = 91-100)	< 1.5 µM	–	–
N[C@@H](Cc1ccc(OCc2cccc(F)c2)cc1)C(=O)N1CCN(Cc2cccc(Cl)c2Cl)CC1 [Example 180]	+++ (+++ = 91-100)	< 1.5 µM	–	–
N[C@@H](Cc1ccc(-c2cccc3c2sc2ccccc23)cc1)C(=O)N1CCN(Cc2cccc(Cl)c2Cl)CC1 [Example 337]	–	< 1.5 µM	91 to 100%	–
N[C@@H](Cc1ccc(OCCc2ccc(OCc3ccccc3)cc2)cc1)C(=O)N1CCN(Cc2cccc(Cl)c2Cl)CC1 [Example 251]	+++ (+++ = 91-100)	< 1.5 µM	–	–
CN(CCOc1ccc(C[C@H](N)C(=O)N2CCN(Cc3cccc(Cl)c3Cl)CC2)cc1)Cc1ccccc1 [Example 285]	++ (++ = 71-90)	1.5 to 3 µM	–	–
N[C@@H](Cc1ccc(-c2cc(Cl)cc(Cl)c2)cc1)C(=O)N1CCN(Cc2cccc(Cl)c2Cl)CC1 [Example 312]	–	1.5 to 3 µM	–	91 to 100%
Cc1ccccc1COc1ccc(C[C@H](N)C(=O)N2CCN(Cc3cccc(Cl)c3Cl)CC2)cc1 [Example 216]	+++ (+++ = 91-100)	1.5 to 3 µM	–	–
Cc1ccc(C)c(COc2ccc(C[C@H](N)C(=O)N3CCN(Cc4cccc(Cl)c4Cl)CC3)cc2)c1 [Example 202]	+++ (+++ = 91-100)	1.5 to 3 µM	–	–
CCCCCOc1ccc(CN2CCCN(C(=O)[C@@H](N)Cc3ccc(OCc4ccccc4)cc3)CC2)cc1 [Example 32]	–	< 1.5 µM	–	71 to 90%
N[C@@H](Cc1ccc(OCCc2cccc([N+](=O)[O-])c2)cc1)C(=O)N1CCN(Cc2cccc(Cl)c2Cl)CC1 [Example 257]	+++ (+++ = 91-100)	1.5 to 3 µM	–	–
COc1cc(CN2CCN(C(=O)[C@@H](N)Cc3ccc(OCc4ccccc4)cc3)CC2)ccc1OCc1ccc([N+](=O)[O-])cc1 [Example 150]	–	1.5 to 3 µM	–	35 to 70%
COc1ccc2ccccc2c1CN1CCN(C(=O)[C@@H](N)Cc2ccc(OCc3ccccc3)cc2)CC1 [Example 106]	–	1.5 to 3 µM	–	71 to 90%
N[C@@H](Cc1ccc(-c2ccc(-c3ccccc3)cc2)cc1)C(=O)N1CCN(Cc2cccc(Cl)c2Cl)CC1 [Example 314]	–	1.5 to 3 µM	–	91 to 100%
N[C@@H](Cc1ccc(OCc2ccccc2-c2ccccc2)cc1)C(=O)N1CCN(Cc2cccc(Cl)c2Cl)CC1 [Example 214]	+++ (+++ = 91-100)	< 1.5 µM	–	–
N[C@@H](Cc1ccc(OCc2ccc(Cl)cc2)cc1)C(=O)N1CCN(Cc2cccc(Cl)c2Cl)CC1 [Example 183]	+++ (+++ = 91-100)	< 1.5 µM	–	–
CCOc1cccc(CN2CCN(C(=O)[C@@H](N)Cc3ccc(OCc4ccccc4)cc3)CC2)c1O [Example 117]	–	> 3 µM	–	71 to 90%
N[C@@H](Cc1ccc(-c2ccc(F)c(Cl)c2)cc1)C(=O)N1CCN(Cc2cccc(Cl)c2Cl)CC1 [Example 306]	–	< 1.5 µM	–	91 to 100%

SMILES	Displacement Rate (%) (at 10 μM) [1]	IC50	inhibition at 10 µM	inhibition at 10 µM [1]
N[C@@H](Cc1ccc(OCc2ccccc2)cc1)C(=O)N1CCCN(Cc2cccc(Oc3cccc(C(F)(F)F)c3)c2)CC1 [Example 16]	–	< 1.5 µM	–	91 to 100%
CSc1ccc(-c2ccc(C[C@H](N)C(=O)N3CCN(Cc4cccc(Cl)c4Cl)CC3)cc2)cc1 [Example 295]	–	< 1.5 µM	–	91 to 100%
N[C@@H](Cc1ccc(-c2ccc(Oc3ccccc3)cc2)cc1)C(=O)N1CCN(Cc2cccc(Cl)c2Cl)CC1 [Example 302]	–	< 1.5 µM	–	91 to 100%
COc1ccc(COc2ccc(C[C@H](N)C(=O)N3CCN(Cc4cccc(Cl)c4Cl)CC3)cc2)c(OC)c1 [Example 228]	++ (++ = 71-90)	> 3 µM	–	–
CC(Cc1cccc(C(F)(F)F)c1)N1CCCN(C(=O)[C@@H](N)Cc2ccc(OCc3ccccc3)cc2)CC1 (stereo partly shown) [Example 44]	–	1.5 to 3 µM	–	71 to 90%
N[C@@H](Cc1ccc(OCCc2ccc(F)cc2)cc1)C(=O)N1CCN(Cc2cccc(Cl)c2Cl)CC1 [Example 247]	+++ (+++ = 91-100)	< 1.5 µM	–	–
CC(C)c1ccc(-c2ccc(C[C@H](N)C(=O)N3CCN(Cc4cccc(Cl)c4Cl)CC3)cc2)cc1 [Example 332]	–	> 3 µM	–	35 to 70%
CCOc1ccc(-c2ccc(C[C@H](N)C(=O)N3CCN(Cc4cccc(Cl)c4Cl)CC3)cc2)cc1 [Example 310]	–	< 1.5 µM	–	91 to 100%
CN(C)CCN[C@@H](Cc1ccc(OCc2ccccc2)cc1)C(=O)N1CCN(Cc2cccc(Cl)c2Cl)CC1 [Example 175]	–	< 1.5 µM	–	91 to 100%
CC(C)N1CCN(C(=O)[C@@H](N)Cc2ccc(OCc3ccccc3)cc2)CC1 [Example 143]	–	> 3 µM	–	35 to 70%
N[C@@H](Cc1ccc(OCc2ccccc2)cc1)C(=O)N1CCCN(Cc2ccc(OCc3ccccc3)cc2)CC1 [Example 13]	–	1.5 to 3 µM	–	91 to 100%
N[C@@H](Cc1ccc(OCc2ccccc2)cc1)C(=O)N1CCN(Cc2cc(C(F)(F)F)cc(C(F)(F)F)c2)CC1 [Example 101]	–	< 1.5 µM	–	91 to 100%
N[C@@H](Cc1ccc(OCc2ccccc2)cc1)C(=O)N1CCCN(Cc2ccccc2Cl)CC1 [Example 57]	–	> 3 µM	–	35 to 70%
N[C@@H](Cc1ccc(OCc2ccccc2)cc1)C(=O)N1CCN(Cc2ccc(-c3ccc(Cl)cc3)o2)CC1 [Example 81]	–	< 1.5 µM	–	91 to 100%
CCCCCCCCOc1ccc(CN2CCN(C(=O)[C@@H](N)Cc3ccc(OCc4ccccc4)cc3)CC2)cc1 [Example 133]	–	< 1.5 µM	–	35 to 70%
N[C@@H](Cc1ccc(OCc2ccccc2)cc1)C(=O)N1CCN(Cc2cccc([N+](=O)[O-])c2)CC1 [Example 152]	–	> 3 µM	–	35 to 70%
N[C@@H](Cc1ccc(OCc2ccc([N+](=O)[O-])cc2)cc1)C(=O)N1CCN(Cc2cccc(Cl)c2Cl)CC1 [Example 223]	+++ (+++ = 91-100)	1.5 to 3 µM	–	–
O=C([C@H](Cc1ccc(OCc2ccccc2)cc1)NCCN1CCOCC1)N1CCN(Cc2cccc(Cl)c2Cl)CC1 [Example 172]	–	1.5 to 3 µM	–	71 to 90%
COc1ccc(OC)c(-c2ccc(C[C@H](N)C(=O)N3CCN(Cc4cccc(Cl)c4Cl)CC3)cc2)c1 [Example 320]	+++ (+++ = 91-100)	1.5 to 3 µM	–	–
CC(C)CN1CCN(C(=O)[C@@H](N)Cc2ccc(OCc3ccccc3)cc2)CC1 [Example 146]	–	> 3 µM	–	35 to 70%
